Results from patent publication US9695155B2, “Herbicidal substituted pyrimidinyloxy benzene compounds” (E. I. DU PONT DE NEMOURS AND COMPANY, priority 2013, dated 2017).

Experiments:
blackgrass = test: Test A postemergence; assay type: in vivo, Alopecurus myosuroides
Procedure, shortened: (§1)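 Greenhouse pot test, loam/sand soil. Formulation: non-phytotoxic solvent mix plus surfactant. Pre: directed spray onto soil after sowing. Post: plants at 1–2 leaf, 2–10 cm. Rated visually vs untreated controls at ~10 d, 0 (no effect) to 100 (complete control).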

Heteranthera limosa = test: Test B flooded paddy test; assay type: in vivo; conditions: Flood, 250 g ai/ha; 0 to 100 scale where 0 is no effect and 100 is complete control
Procedure, shortened: (§2)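 2-leaf stage plants; pots flooded to 3 cm, compound added to paddy water, depth maintained. Greenhouse 13–15 d. Visual rating vs untreated controls, 0 (no effect) to 100 (complete control); dash = no result.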

barnyardgrass [1] = test: Test A preemergence; assay type: in vivo, Echinochloa crus-galli; conditions: for Plant response rating, Barnyardgrass: 0 to 100 scale where 0 is no effect and 100 is complete control
Procedure, shortened: as §1

giant foxtail [2] = test: Test A preemergence; assay type: in vivo, Setaria faberii; conditions: for Plant response rating, Foxtail, Giant: 0 to 100 scale where 0 is no effect and 100 is complete control
Procedure, shortened: as §1

giant foxtail [3] = test: Test A postemergence; assay type: in vivo, Setaria faberii
Procedure, shortened: as §1

pigweed [4] = test: Test A postemergence; assay type: in vivo, Amaranthus retroflexus; conditions: 0 to 100 scale, 0 no effect, 100 complete control
Procedure, shortened: as §1

corn = test: Test A postemergence; assay type: in vivo, Zea mays
Procedure, shortened: as §1

barnyardgrass [5] = test: Test A postemergence; assay type: in vivo, Echinochloa crus-galli
Procedure, shortened: as §1

wheat = test: Test A postemergence; assay type: in vivo, Triticum aestivum; conditions: 0 to 100 scale, 0 no effect, 100 complete control
Procedure, shortened: as §1

galium = test: Test A postemergence; assay type: in vivo, Galium aparine
Procedure, shortened: as §1

kochia [6] = test: Test A postemergence; assay type: in vivo, Kochia scoparia
Procedure, shortened: as §1

pigweed [7] = test: Test A preemergence; assay type: in vivo, Amaranthus retroflexus; conditions: for Plant response rating, Pigweed: 0 to 100 scale where 0 is no effect and 100 is complete control
Procedure, shortened: as §1

ragweed [8] = test: Test A preemergence; assay type: in vivo, Ambrosia elatior; conditions: for Plant response rating, Ragweed: 0 to 100 scale where 0 is no effect and 100 is complete control
Procedure, shortened: as §1

kochia [9] = test: Test A preemergence; assay type: in vivo, Kochia scoparia; conditions: for Plant response rating, Kochia: 0 to 100 scale where 0 is no effect and 100 is complete control
Procedure, shortened: as §1

barnyardgrass [10] = test: Test B flooded paddy test; assay type: in vivo, Echinochloa crus-galli; conditions: Flood, 250 g ai/ha; 0 to 100 scale where 0 is no effect and 100 is complete control
Procedure, shortened: as §2

rice = test: Test B flooded paddy test; assay type: in vivo, Oryza sativa; conditions: Flood, 250 g ai/ha; 0 to 100 scale where 0 is no effect and 100 is complete control
Procedure, shortened: as §2

Italian ryegrass [11] = test: Test A preemergence; assay type: in vivo, Lolium multiflorum; conditions: for Plant response rating, Ryegrass, Italian: 0 to 100 scale where 0 is no effect and 100 is complete control
Procedure, shortened: as §1

ragweed [12] = test: Test A postemergence; assay type: in vivo, Ambrosia elatior; conditions: 0 to 100 scale, 0 no effect, 100 complete control
Procedure, shortened: as §1

Italian ryegrass [13] = test: Test A postemergence; assay type: in vivo, Lolium multiflorum; conditions: 0 to 100 scale, 0 no effect, 100 complete control
Procedure, shortened: as §1

sedge, umbrella = test: Test B flooded paddy test; assay type: in vivo, Cyperus difformis; conditions: Flood, 250 g ai/ha; 0 to 100 scale where 0 is no effect and 100 is complete control
Procedure, shortened: as §2

[14] = 31 g ai/ha, 0 to 100 scale, 0 no effect, 100 complete control
[15] = 125 g ai/ha, 0 to 100 scale, 0 no effect, 100 complete control
[16] = 31 g ai/ha, visual, approximately 10 days
[17] = 125 g ai/ha, 0 to 100 scale where 0 is no effect and 100 is complete control

SMILES: Cc1cc(C(F)F)nn1-c1ccccc1Oc1ncc(Cl)cn1 [Compound 267]
- Plant response rating, Blackgrass (blackgrass; [14]): 0
- Plant response rating, Blackgrass (blackgrass; [15]): 0
- Plant response rating, Ducksalad (Heteranthera limosa): 0
- Plant response rating, Barnyardgrass (barnyardgrass [1]; [16]): 0
- Barnyardgrass plant response rating (0 to 100 scale, 0 is no effect, 100 is complete control) (barnyardgrass [1]; 125 g ai/ha): 0
- Plant response rating, Foxtail, Giant (giant foxtail [2]; [16]): 0
- Foxtail, Giant plant response rating (0 to 100 scale) (giant foxtail [2]; 125 g ai/ha): 0
- Plant response rating, Foxtail, Giant (giant foxtail [3]; [14]): 0
- Plant response rating, Foxtail, Giant (giant foxtail [3]; [15]): 0
- Plant response rating, Pigweed (pigweed [4]; 31 g ai/ha): 0
- Plant response rating, Pigweed (pigweed [4]; 125 g ai/ha): 0
- Plant response rating, Corn (corn; [14]): 0
- Plant response rating, Corn (corn; [15]): 0
- Plant response rating, Barnyardgrass (barnyardgrass [5]; [14]): 0
- Plant response rating, Barnyardgrass (barnyardgrass [5]; [15]): 0
- Plant response rating, Wheat (wheat; 31 g ai/ha): 0
- Plant response rating, Wheat (wheat; 125 g ai/ha): 0
- Plant response rating, Galium (galium; [14]): 0
- Plant response rating, Galium (galium; [15]): 10
- Plant response rating, Kochia (kochia [6]; [14]): 0
- Plant response rating, Kochia (kochia [6]; [15]): 0
- Plant response rating, Pigweed (pigweed [7]; [16]): 0
- Pigweed plant response rating (0 to 100 scale) (pigweed [7]; 125 g ai/ha): 0
- Plant response rating, Ragweed (ragweed [8]; [16]): 0
- Ragweed plant response rating (0 to 100 scale) (ragweed [8]; 125 g ai/ha): 0
- Plant response rating, Kochia (kochia [9]; [16]): 0
- Kochia plant response rating (0 to 100 scale) (kochia [9]; 125 g ai/ha): 0
- Plant response rating, Barnyardgrass (barnyardgrass [10]): 0
- Plant response rating, Rice (rice): 0
- Plant response rating, Ryegrass, Italian (Italian ryegrass [11]; [16]): 0
- Ryegrass, Italian plant response rating (0 to 100 scale) (Italian ryegrass [11]; 125 g ai/ha): 0
- Plant response rating, Ragweed (ragweed [12]; 31 g ai/ha): 0
- Plant response rating, Ragweed (ragweed [12]; 125 g ai/ha): 0
- Plant response rating, Ryegrass, Italian (Italian ryegrass [13]; 31 g ai/ha): 0
- Plant response rating, Ryegrass, Italian (Italian ryegrass [13]; 125 g ai/ha): 0
- Plant response rating, Sedge, Umbrella (sedge, umbrella): 0

SMILES: Fc1cccc(Oc2ncc(Cl)cn2)c1-n1cc(C2CCCC2)nn1 [Compound 106]
- Plant response rating, Blackgrass (blackgrass; [14]): 30
- Plant response rating, Blackgrass (blackgrass; [17]): 50
- Plant response rating, Ducksalad (Heteranthera limosa): 75
- Barnyardgrass plant response rating (0 to 100 scale) (barnyardgrass [1]; 31 g ai/ha): 0
- Plant response rating, Barnyardgrass (barnyardgrass [1]; 125 g ai/ha): 40
- Foxtail, Giant plant response rating (0 to 100 scale) (giant foxtail [2]; 31 g ai/ha): 30
- Plant response rating, Foxtail, Giant (giant foxtail [2]; 125 g ai/ha): 70
- Plant response rating, Foxtail, Giant (giant foxtail [3]; [14]): 50
- Plant response rating, Foxtail, Giant (giant foxtail [3]; [17]): 70
- Plant response rating, Pigweed (pigweed [4]; 31 g ai/ha): 50
- Plant response rating, Corn (corn; [14]): 0
- Plant response rating, Corn (corn; [17]): 20
- Plant response rating, Barnyardgrass (barnyardgrass [5]; [14]): 0
- Plant response rating, Barnyardgrass (barnyardgrass [5]; [17]): 50
- Plant response rating, Wheat (wheat; 31 g ai/ha): 0
- Plant response rating, Galium (galium; [14]): 50
- Plant response rating, Galium (galium; [17]): 70
- Plant response rating, Kochia (kochia [6]; [14]): 0
- Plant response rating, Kochia (kochia [6]; [17]): 50
- Pigweed plant response rating (0 to 100 scale) (pigweed [7]; 31 g ai/ha): 10
- Plant response rating, Pigweed (pigweed [7]; 125 g ai/ha): 60
- Ragweed plant response rating (0 to 100 scale) (ragweed [8]; 31 g ai/ha): 0
- Plant response rating, Ragweed (ragweed [8]; 125 g ai/ha): 0
- Kochia plant response rating (0 to 100 scale) (kochia [9]; 31 g ai/ha): 0
- Plant response rating, Kochia (kochia [9]; 125 g ai/ha): 0
- Plant response rating, Barnyardgrass (barnyardgrass [10]): 0
- Plant response rating, Rice (rice): 0
- Ryegrass, Italian plant response rating (0 to 100 scale) (Italian ryegrass [11]; 31 g ai/ha): 0
- Plant response rating, Ryegrass, Italian (Italian ryegrass [11]; 125 g ai/ha): 0
- Plant response rating, Ragweed (ragweed [12]; 31 g ai/ha): 20
- Plant response rating, Ryegrass, Italian (Italian ryegrass [13]; 31 g ai/ha): 0
- Plant response rating, Sedge, Umbrella (sedge, umbrella): 90
